# Measurements published in US9624238B2, “4H-thieno[3,2-C]chromene-based inhibitors of Notum Pectinacetylesterase and methods of their use” (Lexicon Pharmaceuticals, Inc., priority 2011, dated 2017).
# How the values were obtained:
# [1] = molecular target: T1, human notum pectinacetyltransferase (Homo sapiens, UniProt Q6P988); experiment: Reporter assay (CellSensor LEF/TCF-bla FreeStyle 293F cells, Wnt3a and notum conditioned media); type: cell-based; settings: class symbols
# T1 construct: made in house; unpurified conditioned medium used
# T1 sequence (Q6P988 20-496): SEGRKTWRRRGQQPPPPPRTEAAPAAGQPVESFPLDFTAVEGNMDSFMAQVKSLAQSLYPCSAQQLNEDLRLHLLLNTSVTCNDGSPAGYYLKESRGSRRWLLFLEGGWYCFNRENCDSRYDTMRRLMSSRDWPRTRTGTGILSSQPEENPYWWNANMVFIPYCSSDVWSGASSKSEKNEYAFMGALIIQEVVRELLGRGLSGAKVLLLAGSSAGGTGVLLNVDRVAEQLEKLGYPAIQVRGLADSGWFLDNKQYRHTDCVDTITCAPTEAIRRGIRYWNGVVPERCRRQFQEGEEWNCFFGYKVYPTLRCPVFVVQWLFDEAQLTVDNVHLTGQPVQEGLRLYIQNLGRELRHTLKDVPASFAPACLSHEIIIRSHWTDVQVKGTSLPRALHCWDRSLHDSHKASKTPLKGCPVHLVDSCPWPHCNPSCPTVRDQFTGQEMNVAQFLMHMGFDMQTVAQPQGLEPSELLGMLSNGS
# Experimental: Plasmid containing human notum pectinacetyltransferase in pcDNA3.1(+) vector was transfected into HEK (293 cells and clones were selecting by growing in presence of 400 ug/mL of G418. The clone containing highest expression of human notum pectinacetyltransferase in the conditioned media was maintained for all future activity assays. L cells overexpressing and secreting Wnt3a into the conditioned media were purchased from ATCC.
# The assay protocol was as follows. […] The cell growth medium consisted of DMEM with 10% Dialyzed FBS, 5 μg/ml Blasticidin (Invitrogen, R210-01), 0.1 mM NEAA, 25 mM HEPES and 1×GPS. Cells were then trypsinized by first rinsing with PBS, followed by addition of 5 mL of trypsin and incubation of plates at room temperature for two minutes. A total of 10 mL of assay media (Opti-MEM, plus 0.5% dialyzed FBS, 0.1 mM NEAA, 1 mM sodium pyruvate, 10 mM HEPES, 1×GPS) was then added per 15 cm plate. Cells were counted and suspended at 0.75 million cells per mL. […] After incubation of cells at 37° C. for 3 hours, 10 μL of 30 mM LiCl in assay medium was added per well, followed by incubation at 37° C. for another 3 hours. […] Ten μL of the Wnt3a/notum pentinacetyltransferase mixture was then transferred from Greiner plates to each well of the 384-well plates containing the CellSensor cells.
# [2] = molecular target: T1, human notum pectinacetyltransferase; experiment: Binding assay (OPTS esterase substrate, fluorimetric); type: biochemical; settings: class symbols
# Experimental: Plasmid containing human notum pectinacetyltransferase in pcDNA3.1(+) vector was transfected into HEK (293 cells and clones were selecting by growing in presence of 400 ug/mL of G418. Condition media from these cells was used for the assay.
SMILES,EC50 [1] [nM],IC50 [2] [nM]
O=C(O)c1cc2c(s1)-c1c(cccc1C(F)(F)F)OC2,< 50,< 1000
NC(=O)c1cc2c(s1)-c1cc(F)c(Cl)cc1SC2,< 50,< 100
O=C(c1cc2c(s1)-c1cc(F)cc(F)c1SC2)N1CCCC1CO (centres unmarked),< 100,< 1000
NC(=O)c1cc2c(s1)-c1cc(Cl)ccc1SC2,< 50,< 1000
Cc1cc2c(cc1C)-c1sc(C(=O)O)cc1CO2,< 50,< 1000
O=C(O)c1cc2c(s1)-c1cc(F)c(F)cc1SC2,< 50,< 100
O=C(O)c1cc2c(s1)-c1cc(F)c(F)cc1S(=O)(=O)C2,< 500,< 2000
O=C(O)c1cc2c(s1)-c1cc(F)c(F)cc1CC2,< 50,< 50
NC(=O)c1cc2c(s1)-c1cc(Br)cc(Cl)c1OC2,< 50,< 1000
O=C(O)c1cc2c(s1)-c1cc(Cl)cc(Br)c1OC2,< 50,< 1000
COC(=O)C1CN(C(=O)c2cc3c(s2)-c2ccc(Cl)c(F)c2OC3)CC1c1ccccc1F (centres unmarked),< 50,< 100
NC(=O)c1cc2c(s1)-c1ccccc1S(=O)(=O)C2,< 50,< 1000
COc1ccc2c(c1Cl)CCc1cc(C(=O)N3CCC(F)C3)sc1-2 (centres unmarked),< 50,< 50
CN(C)C(=O)c1cc2c(s1)-c1ccccc1CC2,< 50,< 1000
O=C(NCCO)c1cc2c(s1)-c1ccccc1CCC2,< 100,< 100
O=C(c1cc2c(s1)-c1cc(F)cc(F)c1SC2)N1CC[C@H](F)C1,< 50,< 1000
COc1ccc2c(c1Cl)CCc1cc(C(N)=O)sc1-2,< 50,< 50
O=C(O)c1cc2c(s1)-c1cc([N+](=O)[O-])ccc1OC2,< 50,< 1000
"O=C(O)c1cc2c(s1)-c1cccc(F)c1OC2 [6-fluoro-4H-thieno[3,2-c]chromene-2-carboxylic acid]",< 50,< 1000

SMILES,EC50 [1] [nM],IC50 [2] [nM]
O=C(O)c1cc2c(s1)-c1c(Cl)ccc(Cl)c1OC2,< 50,< 100
COc1ccc2c(c1F)CCc1cc(C(=O)O)sc1-2,< 50,< 100
O=C(O)c1cc2c(s1)-c1ccc(F)cc1CC2,< 50,< 1000
COc1ccc2c(c1)OCc1cc(C(N)=O)sc1-2,< 100,< 1000
O=C(c1cc2c(s1)-c1cc(F)c(Cl)cc1SC2)N1CC[C@H](F)C1,< 50,< 1000
"Cc1cc(C)c2c(c1)-c1sc(C(=O)NCC(=O)O)cc1CC2 [2-(6,8-dimethyl-4,5-dihydronaphtho[1,2-b]thiophene-2-carboxamido)acetic acid]",< 100,< 1000
NC(=O)c1cc2c(s1)-c1cc(F)ccc1OCC2,< 50,< 50
NC(=O)c1cc2c(s1)-c1ccc(F)c(F)c1CC2,< 50,< 50
NC(=O)c1cc2c(s1)-c1ccccc1SCC2,< 50,< 50
CC1Cc2cc(C(=O)O)sc2-c2cc(F)cc(F)c21 (centres unmarked),< 50,< 50
CCOC(=O)c1cc2c(s1)-c1ccccc1CC2,< 50,< 2000
N#CC1CCN(C(=O)c2cc3c(s2)-c2ccc(Cl)c(F)c2OC3)C1 (centres unmarked),< 50,< 1000
COC1CCN(C(=O)c2cc3c(s2)-c2cc(F)cc(F)c2SC3)C1 (centres unmarked),< 50,< 100
NC(=O)c1cc2c(s1)-c1ccc(F)c(F)c1OC2,< 50,< 50
NC(=O)c1cc2c(s1)-c1cc(F)c(F)c(F)c1SC2,< 50,< 50
COc1ccc2c(c1Cl)CCc1cc(C(=O)N3CCC(OC)C3)sc1-2 (centres unmarked),< 50,< 50
O=C(O)c1cc2c(s1)-c1cccc(Cl)c1SC2,< 50,< 2000
Cc1cc(C)c2c(c1)-c1sc(C(=O)O)cc1CO2,< 50,< 1000
